Tested on: MV-4-11 cells
Assay: Gene expression microarray analysis (Affymetrix PrimeView) and GSEA
Assay type: cell-based, human
Design: RFU PODN (11730768_x_at) / Fold change /veh PODN (11730768_x_at) / RFU LINC00158 (11744669_a_at) / Fold change /veh LINC00158 (11744669_a_at) / RFU DUSP10 (11751237_a_at) / Fold change /veh DUSP10 (11751237_a_at) / RFU ID3 (11757404_x_at) / Fold change /veh ID3 (11757404_x_at) / RFU PLEKHG5 (11737974_s_at) / Fold change /veh PLEKHG5 (11737974_s_at) / RFU LRRC4B (11730491_at) / Fold change /veh LRRC4B (11730491_at) / RFU GIMAP4 (11747438_a_at) / Fold change /veh GIMAP4 (11747438_a_at) / RFU KRT8 (11758183_x_at) / Fold change /veh KRT8 (11758183_x_at) / RFU CNN1 (11734310_a_at) / Fold change /veh CNN1 (11734310_a_at) / RFU VPS37D (11726825_at) / Fold change /veh VPS37D (11726825_at) / RFU C10orf10 (11716522_x_at) / Fold change /veh C10orf10 (11716522_x_at) / RFU KIR2DL2 /// KIR2DL4 /// KIR2DL5A /// KIR2DL5B /// KIR2DS1 /// KIR2DS2 /// KIR2DS3 /// KIR2DS4 /// KIR3DL3 /// KIR3DL3 /// KIR3DS1 (11738374_at) / Fold change /veh KIR2DL2 /// KIR2DL4 /// KIR2DL5A /// KIR2DL5B /// KIR2DS1 /// KIR2DS2 /// KIR2DS3 /// KIR2DS4 /// KIR3DL3 /// KIR3DL3 /// KIR3DS1 (11738374_at) / RFU C1QL1 (11718748_at) / Fold change /veh C1QL1 (11718748_at) / RFU TMPRSS4 (11747572_a_at) / Fold change /veh TMPRSS4 (11747572_a_at) / RFU HAMP (11756126_x_at) / Fold change /veh HAMP (11756126_x_at) / RFU RNFT2 (11725882_a_at) / Fold change /veh RNFT2 (11725882_a_at) / RFU NR4A2 (11747474_a_at) / Fold change /veh NR4A2 (11747474_a_at) / RFU ABCC12 (11746883_a_at) / Fold change /veh ABCC12 (11746883_a_at) / RFU TMEM136 (11760407_x_at) / Fold change /veh TMEM136 (11760407_x_at) / RFU CLDN22 /// WWC2 (11732394_at) / Fold change /veh CLDN22 /// WWC2 (11732394_at) / RFU HLA-DPB1 (11760878_x_at) / Fold change /veh HLA-DPB1 (11760878_x_at) / RFU SPINT1 (11716480_a_at) / Fold change /veh SPINT1 (11716480_a_at) / RFU GAP43 (11754022_s_at) / Fold change /veh GAP43 (11754022_s_at) / RFU A4GNT (11735810_at) / Fold change /veh A4GNT (11735810_at) / RFU PRB3 (11715151_x_at) / Fold change /veh PRB3 (11715151_x_at) / RFU TUBB4B (11761932_at) / Fold change /veh TUBB4B (11761932_at) / RFU CAPN14 (11732068_a_at) / Fold change /veh CAPN14 (11732068_a_at) / RFU TMCC2 (11721928_a_at) / Fold change /veh TMCC2 (11721928_a_at) / RFU IRGQ (11745062_a_at) / Fold change /veh IRGQ (11745062_a_at) / RFU FAM174B (11720279_a_at) / Fold change /veh FAM174B (11720279_a_at) / RFU TMPRSS4 (11748680_a_at) / Fold change /veh TMPRSS4 (11748680_a_at) / RFU FAM212B (11763350_a_at) / Fold change /veh FAM212B (11763350_a_at) / RFU PLEKHG5 (11743358_a_at) / Fold change /veh PLEKHG5 (11743358_a_at) / RFU ZSCAN30 (11745921_a_at) / Fold change /veh ZSCAN30 (11745921_a_at) / RFU CMKLR1 (11741424_a_at) / Fold change /veh CMKLR1 (11741424_a_at) / RFU LOC101060620 /// MAPK8IP1 (11723275_at) / Fold change /veh LOC101060620 /// MAPK8IP1 (11723275_at) / RFU SPTSSB (11747773_x_at) / Fold change /veh SPTSSB (11747773_x_at) / RFU PRSS12 (11739890_at) / Fold change /veh PRSS12 (11739890_at) / RFU BIN1 (11741810_x_at) / Fold change /veh BIN1 (11741810_x_at) / RFU WNT11 (11732464_a_at) / Fold change /veh WNT11 (11732464_a_at) / RFU C10orf10 (11716521_a_at) / Fold change /veh C10orf10 (11716521_a_at) / RFU C5orf56 (11738089_at) / Fold change /veh C5orf56 (11738089_at) / RFU CYB561 (11721691_x_at) / Fold change /veh CYB561 (11721691_x_at) / RFU ANKRD19P (11752326_a_at) / Fold change /veh ANKRD19P (11752326_a_at) / RFU OR2T12 /// OR2T33 /// OR2T8 (11738714_s_at) / Fold change /veh OR2T12 /// OR2T33 /// OR2T8 (11738714_s_at) / RFU VCAN (11748164_a_at) / Fold change /veh VCAN (11748164_a_at) / RFU JSRP1 (11732532_at) / Fold change /veh JSRP1 (11732532_at) / RFU KRTAP10-11 (11738290_x_at) / Fold change /veh KRTAP10-11 (11738290_x_at) / RFU MYO3A (11730013_a_at) / Fold change /veh MYO3A (11730013_a_at) / RFU EBF3 (11725865_a_at) / Fold change /veh EBF3 (11725865_a_at) / RFU CAMK2N1 (11719241_x_at) / Fold change /veh CAMK2N1 (11719241_x_at) / RFU C5orf56 (11738088_a_at) / Fold change /veh C5orf56 (11738088_a_at) / RFU OLFML3 (11715873_a_at) / Fold change /veh OLFML3 (11715873_a_at) / RFU LOC100653217 /// NTM (11731650_a_at) / Fold change /veh LOC100653217 /// NTM (11731650_a_at) / RFU MAPK11 (11762145_a_at) / Fold change /veh MAPK11 (11762145_a_at) / RFU FIZ1 (11724087_x_at) / Fold change /veh FIZ1 (11724087_x_at) / RFU OASL (11726364_x_at) / Fold change /veh OASL (11726364_x_at) / RFU SOX15 (11748057_x_at) / Fold change /veh SOX15 (11748057_x_at) / RFU CD79A (11719716_a_at) / Fold change /veh CD79A (11719716_a_at) / RFU HIST1H1D (11736915_at) / Fold change /veh HIST1H1D (11736915_at) / RFU CASKIN2 (11723855_a_at) / Fold change /veh CASKIN2 (11723855_a_at) / RFU LOC730098 (11760151_x_at) / Fold change /veh LOC730098 (11760151_x_at) / RFU OR4N2 (11742367_at) / Fold change /veh OR4N2 (11742367_at) / RFU PRRT2 (11749266_a_at) / Fold change /veh PRRT2 (11749266_a_at) / RFU SNX32 (11753110_a_at) / Fold change /veh SNX32 (11753110_a_at) / RFU CDHR5 (11726645_a_at) / Fold change /veh CDHR5 (11726645_a_at) / RFU RCAN1 (11760418_a_at) / Fold change /veh RCAN1 (11760418_a_at) / RFU FAM167A (11723789_a_at) / Fold change /veh FAM167A (11723789_a_at) / RFU FAM26E (11764081_at) / Fold change /veh FAM26E (11764081_at) / RFU ISYNA1 (11749810_s_at) / Fold change /veh ISYNA1 (11749810_s_at) / RFU ACY1 (11761880_at) / Fold change /veh ACY1 (11761880_at) / RFU 11764098_at / Fold change /veh 11764098_at / RFU SAMD14 (11745864_x_at) / Fold change /veh SAMD14 (11745864_x_at) / RFU NPB (11741838_a_at) / Fold change /veh NPB (11741838_a_at) / RFU TMPRSS6 (11731388_a_at) / Fold change /veh TMPRSS6 (11731388_a_at) / RFU KRTAP10-2 (11738614_at) / Fold change /veh KRTAP10-2 (11738614_at) / RFU ARHGAP8 /// PRR5-ARHGAP8 (11727945_x_at) / Fold change /veh ARHGAP8 /// PRR5-ARHGAP8 (11727945_x_at) / RFU KRTAP5-7 /// NADSYN1 (11734609_at) / Fold change /veh KRTAP5-7 /// NADSYN1 (11734609_at) / RFU RASL12 (11751679_a_at) / Fold change /veh RASL12 (11751679_a_at) / RFU CDKN2B (11736163_a_at) / Fold change /veh CDKN2B (11736163_a_at) / RFU PRF1 (11729649_at) / Fold change /veh PRF1 (11729649_at) / RFU, ZNF638 /// ZNF638-IT1 / Fold change vs veh, ZNF638 /// ZNF638-IT1 / RFU, PANK3 / Fold change vs veh, PANK3 / RFU, SH3YL1 / Fold change vs veh, SH3YL1 / RFU, ZEB2 / Fold change vs veh, ZEB2 / RFU, NRIP1 / Fold change vs veh, NRIP1 / RFU, PTTG1IP / Fold change vs veh, PTTG1IP / RFU, CAPN2 / Fold change vs veh, CAPN2 / RFU, MED14 / Fold change vs veh, MED14 / RFU, SNORA58 / Fold change vs veh, SNORA58 / RFU, C1orf63 / Fold change vs veh, C1orf63 / RFU, LRRFIP1 / Fold change vs veh, LRRFIP1 / RFU, NDUFAF7 / Fold change vs veh, NDUFAF7 / RFU, SLC12A2 / Fold change vs veh, SLC12A2 / RFU, IBTK / Fold change vs veh, IBTK / RFU, ESF1 / Fold change vs veh, ESF1 / Fold change vs veh, TMEM50B / RFU, TAOK1 / Fold change vs veh, TAOK1 / RFU, ACBD3 / Fold change vs veh, ACBD3 / RFU, TMA16 / Fold change vs veh, TMA16 / RFU, RWDD3 / Fold change vs veh, RWDD3 / RFU, BCAT1 / Fold change vs veh, BCAT1 / RFU, EDEM3 / Fold change vs veh, EDEM3 / RFU, TMEM33 / Fold change vs veh, TMEM33 / RFU, WDR75 / Fold change vs veh, WDR75 / RFU, AHCTF1 / Fold change vs veh, AHCTF1 / RFU, TFRC / Fold change vs veh, TFRC / RFU, ZDHHC17 / Fold change vs veh, ZDHHC17 / RFU, NOM1 / Fold change vs veh, NOM1 / RFU, ARL8B / Fold change vs veh, ARL8B / RFU, ZBTB11 / Fold change vs veh, ZBTB11 / RFU, TAMM41 / Fold change vs veh, TAMM41 / RFU, KIAA1704 /// LOC100996395 / Fold change vs veh, KIAA1704 /// LOC100996395 / RFU, ING1 / Fold change vs veh, ING1 / RFU, TRMT61B / Fold change vs veh, TRMT61B / RFU, FUBP3 / Fold change vs veh, FUBP3 / RFU, TP53 / Fold change vs veh, TP53 / RFU, TNKS2 / Fold change vs veh, TNKS2 / RFU, ZFP14 / Fold change vs veh, ZFP14 / RFU, ACTR2 / Fold change vs veh, ACTR2 / RFU, PPP3R1 / Fold change vs veh, PPP3R1 / RFU, PIK3R1 / Fold change vs veh, PIK3R1 / RFU, HNRNPA1 / Fold change vs veh, HNRNPA1 / RFU, RNF170 / Fold change vs veh, RNF170 / RFU, ZNF28 / Fold change vs veh, ZNF28 / RFU, RNGTT / Fold change vs veh, RNGTT / RFU, OGT / Fold change vs veh, OGT / RFU, BRD1 / Fold change vs veh, BRD1 / RFU, MARS / Fold change vs veh, MARS / RFU, ZNF655 / Fold change vs veh, ZNF655 / RFU, FAHD1 / Fold change vs veh, FAHD1 / RFU, BDP1 / Fold change vs veh, BDP1 / RFU, LRRCC1 / Fold change vs veh, LRRCC1 / RFU, ARID1A / Fold change vs veh, ARID1A / RFU, ZNF146 / Fold change vs veh, ZNF146 / RFU, ZNF330 / Fold change vs veh, ZNF330 / RFU, GPN3 / Fold change vs veh, GPN3 / RFU, C9orf123 / Fold change vs veh, C9orf123 / RFU, N4BP2L2 / Fold change vs veh, N4BP2L2 / RFU, ARFIP1 / Fold change vs veh, ARFIP1 / RFU, FAM179B / Fold change vs veh, FAM179B / RFU, BCL10 / Fold change vs veh, BCL10 / RFU, UHRF1BP1L / Fold change vs veh, UHRF1BP1L / RFU, BET1 / Fold change vs veh, BET1 / RFU, CNOT2 / Fold change vs veh, CNOT2 / RFU, ZNF268 / Fold change vs veh, ZNF268 / Fold change vs veh, ZNF507 / RFU, DGCR2 / Fold change vs veh, DGCR2 / RFU, WDSUB1 / Fold change vs veh, WDSUB1 / Fold change vs veh, HSP90B1 /// MIR3652 / RFU, ADSS / Fold change vs veh, ADSS / RFU, GK / Fold change vs veh, GK / RFU, ZNF148 / Fold change vs veh, ZNF148 / RFU, TAF9 / Fold change vs veh, TAF9 / RFU, SLC1A5 / Fold change vs veh, SLC1A5 / RFU, SLMO2 / Fold change vs veh, SLMO2 / RFU, ABCC4 / Fold change vs veh, ABCC4 / RFU, LOC101060439 /// RAP1B / Fold change vs veh, LOC101060439 /// RAP1B / RFU, RFX7 / Fold change vs veh, RFX7 / RFU, GTPBP10 / Fold change vs veh, GTPBP10 / RFU, CNEP1R1 / Fold change vs veh, CNEP1R1 / RFU, BIVM-ERCC5 /// ERCC5 / Fold change vs veh, BIVM-ERCC5 /// ERCC5 / RFU, ILF3 / Fold change vs veh, ILF3 / RFU 11762660_at / Fold change /veh 11762660_at / RFU VCAN (11757783_s_at) / Fold change /veh VCAN (11757783_s_at) / RFU DDX43 (11728927_at) / Fold change /veh DDX43 (11728927_at) / RFU KRT8 (11758188_x_at) / Fold change /veh KRT8 (11758188_x_at) / RFU NKD1 (11759106_at) / Fold change /veh NKD1 (11759106_at) / RFU SRD5A1 (11742802_a_at) / Fold change /veh SRD5A1 (11742802_a_at) / RFU TPSAB1 /// TPSB2 (11721975_s_at) / Fold change /veh TPSAB1 /// TPSB2 (11721975_s_at) / RFU GSTM3 (11746129_a_at) / Fold change /veh GSTM3 (11746129_a_at) / RFU IL23R (11737362_x_at) / Fold change /veh IL23R (11737362_x_at) / RFU TMEM51 (11727254_a_at) / Fold change /veh TMEM51 (11727254_a_at) / RFU PIWIL2 (11732686_x_at) / Fold change /veh PIWIL2 (11732686_x_at) / RFU ORM1 (11744905_x_at) / Fold change /veh ORM1 (11744905_x_at) / RFU CCDC152 (11743942_at) / Fold change /veh CCDC152 (11743942_at) / RFU ECM1 (11717891_a_at) / Fold change /veh ECM1 (11717891_a_at) / RFU IL23R (11748794_a_at) / Fold change /veh IL23R (11748794_a_at) / RFU TNFAIP8L3 (11732012_x_at) / Fold change /veh TNFAIP8L3 (11732012_x_at) / RFU MBOAT4 (11741988_at) / Fold change /veh MBOAT4 (11741988_at) / RFU 11764193_at / Fold change /veh 11764193_at / RFU TMEM53 (11763286_at) / Fold change /veh TMEM53 (11763286_at) / RFU MAGEB2 (11727129_at) / Fold change /veh MAGEB2 (11727129_at) / RFU TMEM200A (11744735_a_at) / Fold change /veh TMEM200A (11744735_a_at) / RFU CCDC152 (11751479_a_at) / Fold change /veh CCDC152 (11751479_a_at) / RFU FAM211A (11726209_a_at) / Fold change /veh FAM211A (11726209_a_at) / RFU RGS16 (11746705_a_at) / Fold change /veh RGS16 (11746705_a_at) / RFU VCAN (11755009_s_at) / Fold change /veh VCAN (11755009_s_at) / RFU RHOB (11743442_s_at) / Fold change /veh RHOB (11743442_s_at) / RFU RGS16 (11720943_a_at) / Fold change /veh RGS16 (11720943_a_at) / RFU RGS16 (11720944_at) / Fold change /veh RGS16 (11720944_at) / RFU, VPS4B / Fold change vs veh, VPS4B / RFU, CREB1 / Fold change vs veh, CREB1 / RFU, DNAJC13 / Fold change vs veh, DNAJC13 / RFU, GNAQ / Fold change vs veh, GNAQ / RFU, CDK5R1 / Fold change vs veh, CDK5R1 / RFU, ZRANB3 / Fold change vs veh, ZRANB3 / RFU, CUL4A / Fold change vs veh, CUL4A / RFU, CCNY / Fold change vs veh, CCNY / RFU, UFL1 / Fold change vs veh, UFL1 / RFU, COG3 / Fold change vs veh, COG3 / RFU, DIAPH2 / Fold change vs veh, DIAPH2 / RFU, SKA2 / Fold change vs veh, SKA2 / RFU, AFF3 / Fold change vs veh, AFF3 / RFU, LMF1 / Fold change vs veh, LMF1 / RFU, IPO11 / Fold change vs veh, IPO11 / RFU, DFFB / Fold change vs veh, DFFB / RFU, FOXP1 / Fold change vs veh, FOXP1 / RFU, CARD8 / Fold change vs veh, CARD8 / RFU, STRN3 / Fold change vs veh, STRN3 / RFU, ADK / Fold change vs veh, ADK / RFU, RASSF2 / Fold change vs veh, RASSF2 / RFU, WIPF1 / Fold change vs veh, WIPF1 / RFU, LARP1B / Fold change vs veh, LARP1B / RFU, RASA1 / Fold change vs veh, RASA1 / RFU, RB1 / Fold change vs veh, RB1 / RFU, PPFIA1 / Fold change vs veh, PPFIA1 / RFU, MAT2A / Fold change vs veh, MAT2A / RFU, CCT5 / Fold change vs veh, CCT5 / RFU, WDR92 / Fold change vs veh, WDR92 / RFU, CUX1 / Fold change vs veh, CUX1 / RFU, TTC7A / Fold change vs veh, TTC7A / RFU, TMEM135 / Fold change vs veh, TMEM135 / RFU, DEPTOR / Fold change vs veh, DEPTOR / RFU, CPM / Fold change vs veh, CPM / RFU, DNAJB6 / Fold change vs veh, DNAJB6 / RFU, CACNA2D3 / Fold change vs veh, CACNA2D3 / RFU, DTX4 / Fold change vs veh, DTX4 / RFU, TFCP2 / Fold change vs veh, TFCP2 / RFU, GMCL1 /// GMCL1P1 / Fold change vs veh, GMCL1 /// GMCL1P1 / RFU, AEBP2 / Fold change vs veh, AEBP2 / RFU, SNHG1 /// SNORD22 /// SNORD25 /// SNORD26 /// SNORD27 /// SNORD28 /// SNORD29 /// SNORD31 / Fold change vs veh, SNHG1 /// SNORD22 /// SNORD25 /// SNORD26 /// SNORD27 /// SNORD28 /// SNORD29 /// SNORD31 / Fold change (Aza/veh), C12orf56 (ProbeSet 11735607_a_at) / Fold change (ACY-1035/veh), C12orf56 (ProbeSet 11735607_a_at) / Fold change (Aza/veh), FGFR1OP (ProbeSet 11751329_s_at) / Fold change (ACY-1035/veh), FGFR1OP (ProbeSet 11751329_s_at) / Fold change (Aza/veh), VPS36 (ProbeSet 11739960_a_at) / Fold change (ACY-1035/veh), VPS36 (ProbeSet 11739960_a_at) / RFU SYPL1 (11715823_x_at) / Fold change /veh SYPL1 (11715823_x_at) / RFU IGFBP7 (11715501_s_at) / Fold change /veh IGFBP7 (11715501_s_at) / RFU REEP3 (11722064_at) / Fold change /veh REEP3 (11722064_at) / RFU IGLL1 (11728026_x_at) / Fold change /veh IGLL1 (11728026_x_at): dose or concentration left out as unconfirmed
Conditions: MV-4-11 cells, 48 hours

In the case of Nc1ccc(-c2cccs2)cc1NC(=O)c1ccc2c(c1)cc(C1CC1)n2CCN1CCOCC1 [ACY-1035], the “RFU TMEM51 (11727254_a_at)” value is reported as 14.11 RFU.
